According to patent US7462480B2, “Stimulation of microbial dechlorination of polychorinated biphenyls with halogenated ethenes” (University of Maryland Biotechnology Institute, priority 2002, dated 2008):

How the values were obtained:
[1] = system: DF-1; experiment: anaerobic enrichment culture of PCB dechlorinating bacterium DF-1 with tetrachloroethene; format: cell-based, bacterium double flank-dechlorinating strain DF-1
Procedure: (§1) Culture Conditions. A sterile media was prepared composed of at least one of the following components in grams per liter (final concentration) of demineralized water: Na2CO3, 3.0; Na2HPO4, 0.6; NH4Cl, 0.5; cysteine-HCl.H2O, 0.25; Na2S.9H2O, 0.25; resazurin, 0.001. In addition, 1% (v/v) each of vitamin and trace element solutions was added. An anaerobic enrichment culture comprising either O-17 (GenBank Accession #: AF058005; Appl Environ Microbiol. 1998 September; 64(9):3359-67)or DF-1 (GenBank Accession #: AF393781; Appl Environ Microbiol. 2002 February; 68(2):807-12)capable of dechlorination of 2,3,5,6-tetrachlorobiphenyl (2,3,5,6-CB) in the absence of sediment was used in this study. Cultures were incubated at 30° C. in the dark. All gases were passed through a column of reduced copper turnings at 350° C. to remove traces of O2. Media (8 ml) were dispersed into culture tubes (16×160 mm) and sealed with Teflon®-lined butyl stoppers (The West Company, Lionville, Pa.) secured by aluminum crimp collars (Bellco Glass, Inc., Vineland, N.J.).
(§2) Congener 2,3,5,6-tetrachlorobiphenyl (2,3,5,6-CB) was also solubilized in tetrachloroethene and added to a fresh anaerobic enrichment culture comprising either O-17 or DF-1 and was incubated under strict anaerobic conditions at 30° C. in the dark. […]

[2] = partially soluble in water; cited from earlier work
[3] = system: O-17; experiment: anaerobic enrichment culture of PCB dechlorinating bacterium O-17 with tetrachloroethene; format: cell-based, bacterium ortho-dechlorinating strain O-17
Procedure: as §1, §2

[4] = 2,3,5,6-CB solubilized in tetrachloroethene, strict anaerobic conditions, 30° C. in the dark
[5] = PCBs and tetrachloroethene combined, simultaneously dechlorinated

## ClC(Cl)=C(Cl)Cl [tetrachloroethene]
[1]; [4]
  population growth density relative to culture containing 2,3,5,6-CB alone: increased population growth density
[1]; [5]
  effect on PCB dechlorination: did not inhibit or significantly delay PCB dechlorination
[2]
  solubility in water: up to 1 mM
[3]; [4]
  population growth density relative to culture containing 2,3,5,6-CB alone: increased population growth density
[3]; [5]
  effect on PCB dechlorination: did not inhibit or significantly delay PCB dechlorination
